Assay results published in a melting point compilation (Tetko et al.; mined from patent text by program, amines drawn as free bases though some values may be those of a salt).

SMILES	melting point [°C]
C#Cc1ccc2c(c1)[C@@H](N)[C@H](O)CO2 (relative stereo)	132 to 134
C1=C(c2ccc3ccccc3c2)CCN(Cc2n[nH]c3ccccc23)C1	225 to 227
O=C1C=C(c2cc(F)c(Br)cc2F)CC1	129 to 131
N#Cc1cnn(-c2ccc(Cl)c(Cl)c2Cl)c1Cl	124 to 126
COC(=O)CC=C(CC(C)C)C(=O)O	40 to 45
COC1C(OC(=O)c2ccccc2)C(COC(=O)c2ccccc2)OC1n1cc(C)c(=O)[nH]c1=O (stereo unspecified)	128 to 130
O=S1(=O)c2cccc3c(Cl)cc(Cl)c(c23)N1CCCN1CC=C(c2ccccc2)CC1	126
CN(C)c1nc2sc3c(NCc4ccco4)ncnc3c2c2c1CCC2(C)C	89.3 to 91
NC1N=C(Cl)C=C(Cl)N1c1c([N+](=O)[O-])cc([N+](=O)[O-])cc1C(F)(F)F (stereo unspecified)	170 to 173
CC1=CC(C)(C)c2ccc(Oc3ccc([N+](=O)[O-])cc3)cc2O1	80
CCNC(=O)ON=C1N=C(C)C(C)(C)S1	84 to 86
C=C[C@@H]1CCC(=O)N1C(=O)[C@H](Cc1ccccc1)O[Si](C)(C)C(C)(C)C	92 to 93.5
CNC(=O)[C@@H]1C[C@@H](OCC2CC2)CN1S(=O)(=O)c1ccc(Cl)c(COc2cccc3c(-n4ccnc4)cc(C)nc23)c1Cl	98
CC(C)=NOc1nc(C(F)(F)F)cc(=O)n1-c1cc(Oc2ccccc2[N+](=O)[O-])c(Cl)cc1F	156 to 159
COC(=O)COc1ccc(NC(=O)OCCO)cc1	85.5 to 87.5
C[C@H]1CC[C@H]2C(C)(C)[C@@H](O)CC[C@]23Oc2c(c(O)cc4c2CN(S(=O)(=O)c2ccccc2)C4)C[C@]13C	150 to 153
CSc1nc(N)nc2c1ncn2C1C=CC(CO)C1 (stereo unspecified)	152 to 154
CCSC1=CCC2C3CCC4=CC(=O)C=CC4(C)C3C(O)CC12C (stereo unspecified)	216 to 218
CNC(=O)Cn1nc(-c2ccccc2)c(-c2ccccc2)c(C#N)c1=O	292 to 294
O=c1ccc2cn(C3OC(CO)C(O)C3O)c(=O)[nH]c-2n1 (stereo unspecified)	189 to 190

SMILES	melting point [°C]
C[Si](C)(C)CCc1cn(-c2c(Cl)cc(C(F)(F)F)cc2Cl)nc1C#N	128 to 129
CC(C)=CCc1cc2cc(-c3cc(O)cc(O)c3)oc2cc1O	183 to 184
COc1cccc([C@H]2O[C@H](CC(=O)NCCCCCC(=O)O)C(=O)N(CC(C)(C)CO)c3ccc(Cl)cc32)c1OC	96 to 98
Clc1ccc(C2(Cn3cncn3)CCC2)cc1	124 to 125
COc1cc(C(=O)CCC(=O)O)ccc1O	174 to 175
CC(C)(SSc1ccccc1C(=O)Nc1ccc(S(N)(=O)=O)cc1)C(N)C(=O)O (stereo unspecified)	115 to 118
CSc1nc(NCCCn2ccnc2)c(C#N)c(N2CCc3ccccc3CC2)n1	131 to 134
CCOc1ccc(C=NOCCO)cn1	52 to 54
COc1cc(Nc2c(C#N)cnc3cc(Br)c(OC)cc23)c(Cl)cc1Cl	> 250
CCc1cc2c(s1)-n1c(C)nnc1C(CCC(=O)Nc1ccccc1)N=C2c1ccc(Cl)cc1 (stereo unspecified)	183 to 185
O=C(NCc1ccncc1)c1cc2ccnc(N(Cc3ccccc3)Cc3ccccc3)c2[nH]1	119 to 120
CCOC(=O)c1c(CN2CCCC2)nc2cc(OC)c(OC)cc2c1-c1ccc(OC)c(OC)c1	139 to 140
COc1ccc(OC)c(Sc2nc3c(N)ncnc3n2CCC=C(C)C)c1	148 to 150
C=CCn1c(NC)n[nH]c1=S	129 to 131
CC(C)Cc1cc(OCc2ccccc2)c2c(c1)OC(C)(C)CC2C(=O)Oc1ccc([N+](=O)[O-])cc1 (stereo unspecified)	125 to 126
CCOc1cccc(-c2ccc(C3=CCN(S(=O)(=O)C4(C(=O)O)CCOCC4)CC3)cc2C)c1	203 to 205
N#Cc1ccc(N2C(=O)NC3(CCSCC3)C2=O)cc1C(F)(F)F	209 to 210
CCOC(=O)c1cccc(NC(=O)c2cc(-c3ccc(F)cc3)oc2C)c1	171 to 172
O=C(CN1CCC(Cc2ccccc2)CC1)Nc1ccc2c(c1)NC(=O)CO2	220 to 222
CCCCC=CC(=O)Nc1ccccc1	50

SMILES	melting point [°C]
CN(CCO)C(=O)c1cc2ccccc2[nH]1	141 to 142
CN(Cc1cc2c(=O)c(C(=O)NCc3ccc(Cl)cc3)cn(C)c2s1)C[C@@H](O)c1ccco1	159 to 162
CS(=O)(=O)c1ccc(-c2cnn(-c3ccsc3)c(=O)c2-c2ccc(F)cc2)cc1	200 to 202
COCN1c2cc(CCl)ccc2Sc2nccnc21	125 to 126
Cc1cccc(N2CCCCC2)c1NC(N)=S	197 to 198
CC(C)C(c1cncnc1C(F)(F)F)N(C)C(=O)N(C)Cc1ccc(Cl)cc1 (stereo unspecified)	95 to 98
CN1CCN(C2c3ccccc3C=Cc3ccc(Br)cc32)CC1 (stereo unspecified)	128 to 130
Clc1ccc(-c2cc(Cl)c3cc(Cl)ccc3n2)cc1	204 to 208
Nc1nc(OCOC(=O)C2CCCC2)ncc1F	101 to 104
CSc1nc(N)nc(-c2ccccc2)c1-c1ccc(=O)n(C)n1	233 to 235
COC(=O)c1cc(C)c(C(=O)O)c(C)c1	191 to 192
CCCCCCOc1ccc2c(ccc3nc(OCCCCCC)ccc32)n1	91
O=C(c1ccc(F)cc1)C1CCN(CC2CC(c3ccc4[nH]c(=O)oc4c3)=NO2)CC1 (stereo unspecified)	188 to 190
c1ccc(OCCSCc2nnc(-c3ccc(OCCN4CCCC4)cc3)o2)cc1	65
COc1ccc(-c2cc(C(=O)NCc3ccccn3)c(=O)n(C)n2)cc1	122 to 123
COc1ccccc1C=C1NC(=O)N(C)C1=O	189 to 190
CCOC(=O)c1ccccc1-n1c(=O)c2ccccc2n(CCCCBr)c1=O	101 to 102
COC1=CC(=O)c2c(O)c(CO)c(CC(C)O)c(O)c2C1=O (stereo unspecified)	206 to 212
C[Si](C)(C)c1cccc2cc(C(=O)Nc3ccc(N4CC(O)C4)nc3)n(Cc3cccc(F)c3)c12	215 to 217

The remaining lines, values ahead:

melting point [°C]	SMILES
113 to 114	CC1(CCS)C(=O)N2CC=CC(C(=O)O)N2C1=O (stereo unspecified)
140 to 146	Cc1nc(CO)cn1Cc1ccccc1
79	O=C1[C@@H]2CSC(c3ccccc3)N2C(=O)N1Cc1ccccc1 (stereo partly specified)
163 to 164	Cc1nccn1-c1ccc(COc2cccc(C3(C(N)=O)CCCC3)c2)cc1
215 to 218	CCOC(=O)c1cn2c3c(c(F)c(F)cc3c1=O)CCC2CCl (stereo unspecified)
78 to 80	OCCON=Cc1ccncc1
170 to 171	CCOCC1(C)CCCOc2cc(C#Cc3ccc(C(=O)O)cc3)ccc21 (stereo unspecified)
> 350	O=c1[nH]c2cc(Cl)ccc2c(O)c1-c1cccc(F)c1
215 to 217	CCOC(=O)/C=C\n1c(=O)n2nc(C(=O)OCC)cc2c2ccc(Cl)cc21
233 to 235	COCc1c(C(=O)OC(C)C)ncc2[nH]c3ccc(I)cc3c12
25 to 30	c1cn(CC2CCCCC2)cn1
239 to 240	CCOC(=O)C(=CNn1cnnc1)C(=O)c1cc(F)c(F)cc1F
95 to 96	O=c1c(Br)c(Br)cnn1Cc1ccccc1
148 to 150	N#CN1CCC(=C2c3ccccc3Oc3ccc(Cl)cc32)CC1
170	Cc1cc(N)nc(CCc2nc3cc(-c4ccc(C(F)(F)F)cc4)cnc3[nH]2)c1
235 to 236	Cc1c(NC(=O)Nc2ccc(-n3nc(C(F)(F)F)cc3C(F)(F)F)cc2)cccc1[N+](=O)[O-]
86 to 87	CCOc1cc(CCl)cc(OCc2nc(-c3ccccc3)oc2C)c1
124 to 125	CCC(CC)N(O)C(=O)Nc1ccc(Oc2ccccc2)cc1
45.8 to 46.8	O=C(CCl)[C@H](Cc1ccccc1)N(Cc1ccccc1)Cc1ccccc1
127 to 129	CCc1c(N2CCC(C(N)c3ccccn3)C2)c(F)c(N)c2c(=O)c(C(=O)O)cn(C3CC3F)c12 (stereo unspecified)
> 300	Oc1ccnc2cc(Cl)c(F)cc12

melting point [°C]	SMILES
158 to 159	FC(F)(F)c1cccc(N2CCN(c3nc4cccc5c4n3CCC5)CC2)c1
84	CC(=O)N(C)c1csc(Br)n1
129 to 131	CCN1C(=O)C(C)(C)C(=O)N(C)c2cc(CN(CCn3ccc4oc(C)cc4c3=O)Cc3cnccn3)ccc21
75 to 76	CCCCCCCCCCOc1ccc(-c2ccc(CCCCC(C)OC(C)=O)cc2)cc1 (stereo unspecified)
173 to 175	CNC(=O)c1cc2c(Oc3ccc(C(=O)N4CCOCC4)cc3)cncc2s1
180 to 181	CC1CCCC(C)N1Cc1ccc2cc(NC(=O)c3ccc(-c4ccccc4)cc3)ccc2n1 (stereo unspecified)
178 to 180	O=c1[nH]c2ncc(-c3ccc(O)cc3)nc2n1CC1CCCN1 (stereo unspecified)
237	COc1cc(N)c(C#N)cc1C(=O)O
225 to 226	O=C(O)C1Cc2cc3c(-c4ccc(F)cc4)noc3c(Cl)c2O1 (stereo unspecified)
227 to 228	Cc1nc(O)c(C)c(NCC2CC2)n1
204 to 206	NC(=O)c1c(Cl)cc(Cl)c(O)c1Cl
218 to 219	N#Cc1ccc(-c2cn3cc(Br)ccc3n2)cc1
80 to 90	COc1cccc2c1CCC=C2N1CCOCC1
210 to 211	Cc1ccc(C(=O)Nc2c(NC(=O)CN3CCSCC3)ccc3c2C(=O)c2ccccc2C3=O)cc1
80 to 87	COc1cc(N2CCC(N3CCOCC3)C2)ccc1Nc1ncc2ccc(-c3ccccc3OC)n2n1 (stereo unspecified)
233 to 234	C[C@H](NC(=O)OCc1ccccc1)C(=O)N[C@@H](C)C(=O)NC1CCCCC1
14	CCCCCCC(=O)CC(=O)c1ccccc1
204 to 206	N=C(N)c1ccc(NC(=O)N(c2cccc(C(=N)N)c2)C2CCCCCC2)cc1
174 to 176	CCn1c(C(=O)c2cc(C)cc(C=CC#N)c2)c(C(C)C)c(=O)[nH]c1=O
196 to 198	Cc1[nH]c(=O)n(CCC(C(=O)NO)N(C)S(=O)(=O)c2ccc(Oc3ccccc3)cc2)c(=O)c1F (stereo unspecified)
116	COC(=O)c1cc(O)c(O)c(S(=O)(=O)O)c1
